Reference: patent publication US20070258889A1, “NOVEL NANOPARTICLES AND USE THEREOF” (Montana State University, priority 2005, published 2007)
Values after ≈ are worked out from the molar mass of the structure shown. Blank lines part the entries; values can stand above or below the compound they belong to.

How the values were obtained:
[1] = room temperature; cited from earlier work
Solubility (saturation) = format: physicochemical; details: with 1% DMF, aqueous buffer, room temperature, solutions in which the protein cages are stable
tumor lung colonization = details: mouse, in vivo; cited from earlier work
tumor cells = details: cited from earlier work
tumor angiogenesis = details: mice; cited from earlier work
platlets and neutrophils = details: cited from earlier work
[2] = Singlet oxygen production assay (TEMP to TEMPO, EPR); details: 20 μM reactive dye, 50 mM TEMP, DPBS pH 7.4; free dye

Compound: CC(=O)Oc1ccccc1C(=O)O [acetylsalicylic acid]
solubility (saturation) [1]: ~18500 µM (≈ 3330 µg/mL)

solubility (Solubility (saturation)): ~2 µM (≈ 0.665 µg/mL)
Compound: O=C1OC2(c3ccc(O)cc3Oc3cc(O)ccc32)c2ccccc21 [fluorescein]

Compound: CDPGYIGSRC [peptide 11]
experimental tumor lung colonization (tumor lung colonization): reduces experimental tumor lung colonization
invasion of basement membranes by tumor cells (tumor cells): effectively blocks invasion of basement membranes by tumor cells
tumor angiogenesis (tumor angiogenesis): inhibits tumor angiogenesis in mice
toxic effect on platelets and neutrophils (platlets and neutrophils): no toxic effect on these cells

Compound: O=C([O-])c1c(Cl)c(Cl)c(Cl)c(Cl)c1-c1c2cc(I)c(=O)c(I)c-2oc2c(I)c([O-])c(I)cc12.[Na+].[Na+] [Rose Bengal]
increase in the amount of TEMPO generated [2]: 4 fold

solubility (Solubility (saturation)): ~2 µM (≈ 1.09 µg/mL)
Compound: COc1cccc2c1C(=O)c1c(O)c3c(c(O)c1C2=O)C[C@@](O)(C(=O)CO)C[C@@H]3O[C@H]1C[C@H](N)[C@H](O)[C@H](C)O1 [doxorubicin]
